From paper PMC8451722, “Staphylococcus aureus Depends on Eap Proteins for Preventing Degradation of Its Phenol-Soluble Modulin Toxins by Neutrophil Serine Proteases” (Frontiers in Immunology, 2021)

Key:
human FPR2/ALX = target: T1, human FPR2/ALX (Homo sapiens, UniProt P25090); test: Calcium mobilization in HL60 FPR2 cells; type: cell-based; details: calcium flux
T1 construct: expressed in transfected cells; host or cells: HL60
T1 sequence (P25090 1-351): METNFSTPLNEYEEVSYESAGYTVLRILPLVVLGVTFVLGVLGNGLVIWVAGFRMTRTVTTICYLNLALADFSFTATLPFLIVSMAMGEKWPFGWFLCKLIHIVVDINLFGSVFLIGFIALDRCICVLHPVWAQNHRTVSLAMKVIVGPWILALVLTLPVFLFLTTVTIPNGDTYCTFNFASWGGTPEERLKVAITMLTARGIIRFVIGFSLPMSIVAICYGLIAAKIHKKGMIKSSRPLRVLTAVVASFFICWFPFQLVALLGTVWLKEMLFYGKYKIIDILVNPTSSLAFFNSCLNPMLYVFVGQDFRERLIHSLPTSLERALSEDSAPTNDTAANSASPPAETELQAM
Method: Culture filtrates of different bacterial strains (USA300, USA300ΔeapΔeapHIΔeapHII::ermB, S. epidermidis RN1457) were incubated with different amounts of neutrophils to investigate the potential of neutrophils to inactivate their PSM activity. Therefore, 100µl of sterile filtered overnight culture were incubated with 100µl neutrophils in RPMI at the indicated concentrations for six or 24 hours as described in the figure legends. After centrifugation, supernatants were collected and frozen at -20° until they were further analyzed for their FPR2 activity, for truncated PSM fragments and their cytotoxicity.
HL60 cells stably transfected with human FPR2/ALX (HL60-FPR2) have been described recently ([23]). These cells were grown in RPMI medium (Biochrom) supplemented with 10% FCS (Sigma-Aldrich), 20 mM Hepes (Biochrom), penicillin (100 units/ml), streptomycin (100 µg/ml) (Gibco), 1 × Glutamax (Gibco) and in the presence of G418 (Biochrom) at a final concentration of 1 mg/ml. […] Calcium fluxes were analyzed by stimulating cells loaded with Fluo-3-AM (Molecular Probes) and monitoring fluorescence with a FACSCalibur or a FACS Fortessa flow cytometer (BD Biosciences) as described recently ([23]).

[1] = target: T2, human neutrophil elastase (Homo sapiens, UniProt P08246); test: Prevention of NSP-mediated PSMα3 degradation by NSP inhibitors (western blot); type: biochemical; details: 100µM PMSF, one hour at 37°C, text: pre-incubation of neutrophils, Supplementary Figure 1: digestion with NE
T2 construct: purchased PanReac AppliChem
T2 sequence (P08246 30-267): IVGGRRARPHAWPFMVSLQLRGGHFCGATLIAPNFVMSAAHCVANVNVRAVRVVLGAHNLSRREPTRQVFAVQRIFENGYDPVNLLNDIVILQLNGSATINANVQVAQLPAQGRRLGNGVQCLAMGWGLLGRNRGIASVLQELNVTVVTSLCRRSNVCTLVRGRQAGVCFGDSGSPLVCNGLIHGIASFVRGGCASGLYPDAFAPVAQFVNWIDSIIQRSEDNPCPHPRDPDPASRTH
Method: (§1) PSMα3 (1,3µg) was digested either with 0,15 unit’s NE, CG or PR3 for one hour at 37°C with or without addition of PMSF (100µM) or 2µg Eap, 4µgEapH1 or 4µg EapH2. For digestion of PSMα3 by neutrophils, 25µl PSMα3 (20µM) was incubated for one hour with or without 5x10^6 neutrophils in 100µl RPMI at 37°C, 5% CO2. After centrifugation 10µl of the supernatant was used for western Blot analysis. After denaturation of the samples for two minutes at 85°C and addition of Tricine Sample Buffer, samples were subjected to a 10-20%- Tricine SDS gradient gel (Thermo Fischer Scientific). Then, proteins were blotted to a nitrocellulose membrane and blocked overnight using blocking buffer. After washing PSM α3 was visualized using rabbit anti-PSMα3 serum (kindly provided by Michael Otto) at a concentration of 1:10000 (for one hour, 4°C, under agitation). After washing with wash buffer (Tris buffered saline, BioRad +0,05% Tween, Merck), the secondary antibody goat anti rabbit IgG (Dylight 800 conjugate (LI-COR #2557) was added (diluted 1:10000 in blocking buffer) and incubated for one hour at 4°C. Protein bands were detected with the Licor Odyssey CLx.

human neutrophils = test: CD11b expression on neutrophils; type: cell-based; details: USA300 culture filtrate 0,36% in RPMI, treated 24 hours with neutrophils +/- PMSF; neutrophils stimulated 60 min 37°C; flow cytometry
Method: Sterile filtered culture filtrates of S. aureus USA300 (0,36% in RPMI) or TSB were incubated for 24 hours either with or without addition of the NSP inhibitor PMSF and neutrophils. Activation of human neutrophils was determined by measuring surface expression of CD11b. Neutrophils were incubated with the treated culture filtrates at 37°C with rotation for 60 min as described elsewhere ([24]). Cells were stained with a PE-labeled antibody against CD11b (mAb 44; BD Biosciences) or isotype control antibody (BD Biosciences) as described previously. Then, neutrophils were analyzed on a FACS Fortessa cytometer (BD Biosciences)

[2] = target: T3, human neutrophil proteinase 3 (Homo sapiens, UniProt P24158); test: Degradation of PSMα3 by PR3 (western blot); type: in vitro ADME; details: PSMα3 1,3µg, 0,15 units PR3, one hour at 37°C, three independent experiments
T3 construct: purchased MyBioSource
T3 sequence (P24158 28-256): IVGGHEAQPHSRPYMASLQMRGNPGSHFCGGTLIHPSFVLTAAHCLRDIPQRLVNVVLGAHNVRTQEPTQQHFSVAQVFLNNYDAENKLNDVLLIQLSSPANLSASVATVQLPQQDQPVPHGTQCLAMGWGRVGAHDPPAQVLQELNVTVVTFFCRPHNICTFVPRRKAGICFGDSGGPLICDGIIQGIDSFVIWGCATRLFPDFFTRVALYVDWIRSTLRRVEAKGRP
Method: (§2) The three different human serine proteases human NE, PR3, 0.01 U and CG, 0.01 U were investigated and their potential to inactivate PSMα3 was compared. […] 28 ng/ml NE (stock: 1.4 mg/ml) were incubated for one hour at 37°C in RPMI plus 0.05% HSA to inactivate 500 nM PSMα3 in a total volume of 120 μl (0.012 μl NE in 60 μl RPMI). To avoid further degradation of PSMα3, all stimulations were prepared freshly and analyzed in different assays on the same day.
as §1, with “Then, proteins were blotted to a nitrocellulose membrane and blocked overnight using blocking buffer. After washing PSM α3 was visualized using rabbit anti-PSMα3 serum (kindly provided by Michael Otto) at a concentration of 1:10000 (for one hour, 4°C, under agitation).” left out

HL60 cells = test: Cytotoxicity assay (LDH release), HL60 cells; type: cell-based, human; details: three independent experiments
Method: 100 μl of synthetic PSMs, protease degraded PSMs or filtered bacterial culture supernatants were added to wells of a 96-well round bottom culture plate containing 10^5 neutrophils in 100 μl and plates were incubated at 37°C for up to 3 h. At the desired times, the stimulation was stopped by centrifugation for 10 minutes at 300 x g at RT, and cell lysis was determined by measuring the release of lactate dehydrogenase (LDH) using the Cytotoxicity Detection Kit (Roche Applied Sciences), according to the manufacturer’s instructions. As control, 100 μl TSB was diluted in RPMI without phenol red, mixed with human neutrophils (10^6) and tested for its ability to cause cell lysis. As control, lysis of HL60 cells was tested in pure RPMI/TSB without phenol red.

[3] = target: T4, human neutrophil cathepsin G (Homo sapiens, UniProt P08311); test: Degradation of PSMα3 by CG (western blot); type: in vitro ADME; details: PSMα3 1,3µg, 0,15 units CG, one hour at 37°C, three independent experiments
T4 construct: purchased MyBioSource
T4 sequence (P08311 21-255): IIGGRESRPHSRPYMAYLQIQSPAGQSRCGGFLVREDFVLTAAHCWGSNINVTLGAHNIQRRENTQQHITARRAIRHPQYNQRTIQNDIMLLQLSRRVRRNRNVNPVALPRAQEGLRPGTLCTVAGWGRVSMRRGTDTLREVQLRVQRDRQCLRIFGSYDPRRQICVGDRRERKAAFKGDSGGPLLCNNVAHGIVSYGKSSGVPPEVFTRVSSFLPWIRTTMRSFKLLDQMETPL
Method: as §2
as §1, with “Then, proteins were blotted to a nitrocellulose membrane and blocked overnight using blocking buffer. After washing PSM α3 was visualized using rabbit anti-PSMα3 serum (kindly provided by Michael Otto) at a concentration of 1:10000 (for one hour, 4°C, under agitation).” left out

[4] = target: T2, human neutrophil elastase; test: Degradation of PSMα3 by NE (western blot); type: in vitro ADME; details: PSMα3 1,3µg, 0,15 units NE, one hour at 37°C, three independent experiments
Method: as §2
as §1, with “Then, proteins were blotted to a nitrocellulose membrane and blocked overnight using blocking buffer. After washing PSM α3 was visualized using rabbit anti-PSMα3 serum (kindly provided by Michael Otto) at a concentration of 1:10000 (for one hour, 4°C, under agitation).” left out

Row | Compound | PSM-mediated FPR2 activation by culture filtrates of PSM producing S. aureus in the simultaneous presence of neutrophils and inhibitor (human FPR2/ALX; HL60-FPR2 cells) | PSMα3-mediated activation of FPR2 in HL60-FPR2 cells after neutrophil treatment with PMSF pre-incubation (human FPR2/ALX; three independent experiments) | effect of NSP inhibitor PMSF on degradation of PSMα3 [1] | CD11b surface expression on neutrophils incubated with culture filtrates of a PSM-producing S. aureus strain in the presence of inhibitor (human neutrophils) | degradation of PSMα3 upon incubation with PR3 [2] | cytotoxicity of PSMα3 toward HL60 cells after treatment with NE, CG and PR3 (HL60 cells) | degradation of PSMα3 upon incubation with CG [3] | degradation of PSMα3 upon incubation with NE [4]
1 | O=S(=O)(F)Cc1ccccc1 [PMSF, Phenylmethylsulfonyl fluoride] | rescued PSM-mediated FPR2 activation | maintained the activation of FPR2 | prevents degradation of PSMα3 | upregulation of CD11b |  |  |  | 
2 | CSCC[C@H](NC=O)C(=O)N[C@@H](CCC(=O)O)C(=O)N[C@@H](Cc1ccccc1)C(=O)N[C@H](C(=O)N[C@@H](C)C(=O)N[C@@H](CCCCN)C(=O)N[C@@H](CC(C)C)C(=O)N[C@@H](Cc1ccccc1)C(=O)N[C@@H](CCCCN)C(=O)N[C@@H](Cc1ccccc1)C(=O)N[C@@H](Cc1ccccc1)C(=O)N[C@@H](CCCCN)C(=O)N[C@@H](CC(=O)O)C(=O)N[C@@H](CC(C)C)C(=O)N[C@@H](CC(C)C)C(=O)NCC(=O)N[C@@H](CCCCN)C(=O)N[C@@H](Cc1ccccc1)C(=O)N[C@@H](CC(C)C)C(=O)NCC(=O)N[C@@H](CC(N)=O)C(=O)N[C@@H](CC(N)=O)C(=O)O)C(C)C [PSMα3] |  |  |  |  | readily degraded | abolished | readily degraded | readily degraded
